Measurements taken from PMC3169406, “Structure of a cyclin-dependent kinase from Giardia lamblia” (Acta Crystallographica Section F: Structural Biology and …, 2011).

Biological target: T1, GlCDK (cyclin-dependent kinase from G. lamblia) (Giardia duodenalis, UniProt A8BZ95)
T1 construct: gene GL50803_008037; monomer in asymmetric unit; residues Ser11-Pro308 observed
T1 sequence (A8BZ95 1-308): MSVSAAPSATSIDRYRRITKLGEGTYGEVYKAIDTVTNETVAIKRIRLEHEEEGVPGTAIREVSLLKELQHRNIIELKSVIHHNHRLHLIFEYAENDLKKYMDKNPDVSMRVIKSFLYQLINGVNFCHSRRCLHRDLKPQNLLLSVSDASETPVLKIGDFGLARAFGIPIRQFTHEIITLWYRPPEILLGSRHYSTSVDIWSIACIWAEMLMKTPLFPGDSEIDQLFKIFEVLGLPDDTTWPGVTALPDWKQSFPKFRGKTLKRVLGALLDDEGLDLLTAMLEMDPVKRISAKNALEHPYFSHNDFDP
Experiment: X-ray crystal structure, […] A, crystal soak
Conditions: 1 mM AMP, 1 mM MgCl2, overnight soak; 200 mM sodium/potassium tartrate, 100 mM Bis-Tris propane, 25% PEG 3350; no cyclin; ATP-binding site

Nc1ncnc2c1ncn2[C@@H]1O[C@H](COP(=O)(O)O)[C@@H](O)[C@H]1O [AMP, adenosine monophosphate]
X-ray crystal structure, 2.0 A, crystal soak: Good OMIT density was observed for one AMP molecule
